Test results from patent publication US11850283B2, “Liponucleotide-based therapy for asthma” (priority 2017, dated 2023).
“Also recorded” adds a separate entry of the source. Marks after values point to notes of the source that are not given here.

What was measured:
[1] = test system: influenza A/WSN/33 (H1N1)-infected mice; experiment: Effect of influenza infection and i.p. liponucleotide treatment on lung function; format: in vivo, mouse; conditions: for HR (bpm) / SaO2 (%) / WET:DRY / CST / RBASAL: day 6
Description: SaO2 increased from approximately 85% to approximately 96%. This is equivalent to an increase in PaO2 from approximately 65 mmHg to approximately 85 mmHg. It is also equivalent to an increase in O2 carrying capacity of blood (CaO2) from approximately 88% to approximately 97% of normal. Patients with an SaO2 of 96% or a […] would not require additional treatment

[2] = test system: mitochondria, influenza-infected mice; experiment: Effect of influenza infection and CDP-CHO treatment on mitochondrial function; format: in vivo; conditions: day 6; 100 μg/mouse i.p., daily from 1-5 days post-infection
[3] = test system: mouse model of asthma (dust mite/ragweed/Aspergillus fumigatus [DRA] triple antigen exposure); experiment: BALF total and differential cell counts in DRA mouse model of asthma; format: in vivo, BALB/c mice
Method: (§1) To experimentally determine the efficacy of the liponucleotides (lipoNTs) CDP-choline (CDP-CHO), CDP-ethanolamine (CDP-ETH), and CDP-diacylglycerol 16:0/16:0 (CDP-DAG) as therapeutics in a mouse model of asthma (dust mite/ragweed/Aspergillus fumigatus [DRA] triple antigen exposure) (Chung S, et al. Oncotarget 2016 7:17532-17546).
(§2) To induce asthma, adult female BALB/c mice (n=4-5 per group) were sensitized with 50 μl alum+50 μl sterile saline containing dust mite allergen (5 μg/mouse)+ragweed allergen (5 μg/mouse)+Aspergillus allergen (5 μg/mouse) by i.p. injection on days 0 and 5. Mice were then challenged intranasally with dust mite allergen (8.3 μg/mouse)+ragweed allergen ([…])+Aspergillus allergen (8.3 μg/mouse) in 30 μl saline on days 12, 13, and 14, under isoflurane anesthesia. LipoNTs were administered daily by the intraperitoneal route in 50 μl sterile saline.
(§3) Data were collected 15 days after first exposure to DRA in terminal experiments.
Following flexiVent analysis, bronchoalveolar lavage was performed on all mice using 0.8 ml PBS. BALF total and differential cell counts (trypan-blue stained live cells and Giemsa-stained cytospins, respectively) were performed on cell pellets to assess inflammatory cell infiltrates. BALF eosinophil (EO), alveolar macrophage (AM), and neutrophil (PMN) counts were determined.

[4] = test system: mouse model of asthma (dust mite/ragweed/Aspergillus fumigatus [DRA] triple antigen exposure); experiment: BALF cytokine and chemokine content by ELISA in DRA mouse model of asthma; format: in vivo, BALB/c mice; conditions: treatment days 1-14 i.p. daily, mean ± SEM
Method: as §1, §2, §3
BAL supernatant fluid was stored at −20° C. for subsequent measurement of cytokine and/or chemokine content by ELISA using commercially available kits in accordance with manufacturers' instructions.

[5] = test system: ATII cells from influenza A/WSN/33 (H1N1)-infected mice; experiment: Effect of influenza infection and CDP-CHO treatment on ATII cell ultrastructure; format: in vivo, mouse
Description: FIG. 14 is a group of three transmission electron micrographs showing effects of CDP-CHO treatment on ultrastructure of ATII cell lamellar bodies (composed of surfactant lipids and proteins). Relative to mock-infected controls, lamellar bodies in ATII cells from influenza A/WSN/33 (H1N1)-infected mice are smaller and have disordered lamellae.
FIG. 15 is a group of 3 transmission electron micrographs showing effects of influenza infection on ultrastructure of ATII cell mitochondria (Mi). Relative to mock-infected controls (left), Mi in ATII cells from A/WSN/33 (H1N1)-infected mice (center) are fewer in number, less electron dense, and have disordered membranes and cristae.

[6] = test system: mouse model of asthma (dust mite/ragweed/Aspergillus fumigatus [DRA] triple antigen exposure); experiment: Airway hyperresponsiveness to methacholine (flexiVent) in DRA mouse model of asthma; format: in vivo, BALB/c mice
Method: as §1, §2, §3
Airway hyperresponsiveness (AHR) was measured by the forced-oscillation method using the SciReq flexiVent computer-controlled mechanical ventilator. […] Airway resistance at each methacholine dose was quantified by the single-compartment model. […]

influenza-infected mice = experiment: Effect of influenza infection and CDP-CHO treatment on lung inflammation; format: in vivo; conditions: day 6; 100 μg/mouse i.p., daily from 1-5 days post-infection
[7] = i.p. daily from 1-5 days post-infection, CDP-CHO and CDP-ETH 100 μg/mouse, CDP-DAG 10 μg/mouse
[8] = 100 μg/mouse i.p. on day 5 only
[9] = i.p. daily from 1-5 days post-infection, CDP-CHO 100 μg/mouse, CDP-DAG 10 μg/mouse
[10] = treatment days 1-14, result in words
[11] = treatment days 1-14 i.p. daily, day 15, mean ± SEM
[12] = ATII cells of infected mice, result in words
[13] = day 6, 100 μg/mouse i.p., daily from 1-5 days post-infection

In the case of CDP-diacylglycerol [CDP-DAG], the “HR (bpm)” value [1, 7] is reported as 600 ± 10 bpm, the “SaO2 (%)” value [1, 7] is reported as 95.2 ± 1.6 % and the “WET:DRY” value [1, 7] is reported as 5.8 ± 0.1.
With `NCCO[P@SP3](=O)(O)O[P@SP3](=O)(O)OC[C@H]1O[C@@H](n2ccc(N)nc2=O)[C@H](O)[C@@H]1O` [CDP-ETH, CDP-ethanolamine] the “HR (bpm)” value [1, 7] was 540 ± 20 bpm, the “SaO2 (%)” value [1, 7] was 91.1 ± 1.5% and the “WET:DRY” value [1, 7] was 6.5 ± 0.4.
`C[N+](C)(C)CCO[P@TB16](=O)(O)O[P@TB16](=O)(O)OC[C@H]1O[C@@H](n2ccc(N)nc2=O)[C@H](O)[C@@H]1O` [CDP-CHO, CDP-choline] was tested, and the CST [1, 8] was 0.05 ± 0.006, the “HR (bpm)” value [1, 8] was 550 ± 10 bpm and the RBASAL [1, 8] was 1.63 ± 0.22. For the same molecule, the “SaO2 (%)” value [1, 8] was 92.9 ± 1.5 %, the “WET:DRY” value [1, 8] was 6.2 ± 0.2 and the CST [1, 9] was 0.05 ± 0.002. The RBASAL [1, 9] was 1.96 ± 0.12, the “HR (bpm)” value [1, 7] was 570 ± 10 bpm and the “SaO2 (%)” value [1, 7] was 93.5 ± 1.0 %. The “WET:DRY” value [1, 7] was 6.2 ± 0.4, the PaO2 ([1]; equivalent of the SaO2 increase, from approximately 65 mmHg) was “approximately 85 mmHg” and the “O2 carrying capacity of blood (CaO2)” value ([1]; equivalent of the SaO2 increase, from approximately 88%) was “approximately 97 % of normal”. The SaO2 ([1]; infected mice, CDP-CHO treatment, increased from approximately 85%) was “approximately 96%”, the “Effects of single dose treatment late in infection compared with daily treatment” value ([1]; infected mice, result in words) was “as good as those of daily treatment” and the cardiac function ([1]; infected mice, result in words) was “improved cardiac function”. The lung function ([1]; infected mice, result in words) was “better lung function”, the oxygenation ([1]; infected mice, result in words) was “improved oxygenation” and the pulmonary edema ([1]; infected mice, result in words) was “reduced pulmonary edema”. For the same molecule, the “MITOCHONDRIAL MEMBRANE POTENTIAL (ψm; DilC1(5) MCF)” value [2] was 10.14 ± 2.3, the “MIT[…] PRODUCTION” value [2] was 36.91 ± 6.82 and the “anti-inflammatory effect (BALF leukocyte counts)” value [3, 10] was “decreases BALF EO and AM counts”. For the same molecule, the “BALF AMs (×10^6)” value [3, 11] was 0.14 ± 0.03 ×10^6, the “BALF EOs (×10^6)” value [3, 11] was 0.26 ± 0.03 ×10^6 and the “BALF PMNs (×10^6)” value [3, 11] was 0.1 ± 0.03 ×10^6. The “CCL-11 (pg/ml), also known as eotaxin-1” value [4] was 18 ± 8 pg/mL, the “IL-5” value [4] was 16 ± 5 pg/mL and the “IL-17” value [4] was 5 ± 1 pg/mL. The “ATII cell mitochondria (Mi) morphology (transmission electron micrographs)” value [5, 12] was “more electron-dense and have more normal cristae; also recorded: display normal morphology”, the “lamellar body morphology (transmission electron micrographs)” value [5, 12] was “improves lamellar body morphology” and the “ATII CELL AREA (μm^2)” value [5, 13] was 53.64 ± 5.63* μm^2. The “LAMELLAR BODIES/CELL” value [5, 13] was 8.1 ± 1.16, the “LAMELLAR BODY AREA (μm^2)” value [5, 13] was 0.41 ± 0.04* μm^2 and the MITOCHONDRIAL/CELL [5, 13] was 14.5 ± 1.78. The “MIT[…] (μm^2)” value [5, 13] was 0.34 ± 0.01* μm^2, the “DRA-induced AHR” value [6, 10] was “does not attenuate” and the “RMAX (cmH2O · s/ml)” value ([6]; treatment days 1-14 i.p. daily, CDP-CHO, CDP-ETH 5 mg/kg, CDP-DAG 0.5 mg/kg, peak airway resistance at 50 mg/ml methacholine, day 15, mean ± SEM) was 2.65 ± 0.06 cmH2O · s/ml. For the same molecule, the “BALF ALVEOLAR MACS (×10^6/ml)” value (influenza-infected mice) was 1.08 ± 0.21 ×10^6/ml, the “BALF NEUTROPHILS (×10^6/ml)” value (influenza-infected mice) was 0.45 ± 0.07 ×10^6/ml and the “BALF PC” value (influenza-infected mice) was 1.61 ± 0.45. The “VIRAL TITER (log PFU/g)” value (influenza-infected mice) was 5.32 ± 0.07 log PFU/g.
